Assay: Antimicrobial efficacy of the inorganic salt on its own
Conditions: salt alone at the concentration employed in the solutions

| Compound | antimicrobial efficacy of the salt on its own |
| --- | --- |
| [Cl-].[Na+] [sodium chloride] | no antimicrobial efficacy on its own |
| N.N.O=S(=O)(O)O [ammonium sulphate] | no antimicrobial efficacy on its own |

From patent US11076598B2, “Peroxide-based disinfecting solutions containing inorganic salts” (Diversey, Inc., priority 2017, dated 2021)
